Experimental data reported in US4064345A, “Cephalosporins derivatives 7-cyclized α-amino-3-heterothio” (Bristol-Myers Company, priority 1976, dated 1977).
Values after ≈ are worked out from the molar mass of the structure shown. “Also recorded” adds a separate entry of the source.

What was measured:
Str. pyogenes A9604 = test: Antibiotic spectrum in nutrient broth (MIC); type: cell-based; details: Streptococcus pyogenes, 10^-3 dilution of overnight broth culture, 45% AAB + serum + 50% broth, BL-S1057/BL-S1058 adjusted for 80%/59% content of BL-S643
Text: (§1) Antibiotic Spectrum of BL-S643 Derivatives in Nutrient Broth
(§2) *45% AAB + serum + 50% broth listed above.
(§3) **Dilution of overnight broth
(§4) ^(1) Adjusted for 80% content of BL-S643.
(§5) ^(2) Adjusted for 59% content of BL-S643.
(§6) In other words, the numerical values are lowered, i.e. improved. This

S. pneumoniae A9585 = test: Antibiotic spectrum in nutrient broth (MIC); type: cell-based; details: Streptococcus pneumoniae, 10^-3 dilution of overnight broth culture, 45% AAB + serum + 50% broth, BL-S1057/BL-S1058 adjusted for 80%/59% content of BL-S643
Text: as §1, §2, §3, §4, §5, §6

Solubility in water = type: physicochemical
Procedure: d. Solubility = >400 mg./ml. in water

[1] = Liquid chromatography, % hydrolyzed in buffer; type: physicochemical; details: 1 mg./ml.
Procedure: f. Liquid chromatography = 100% hydrolyzed in pH 6.1 buffer within 1 hour at room temperature (concentration = 1 mg./ml.)
d. Liquid chromatography (1 mg./ml. in pH 6 buffer)

Ent. cloacae A9659 = test: Antibiotic spectrum in nutrient broth (MIC); type: cell-based; details: Enterobacter cloacae, 10^-4 dilution, BL-S1057/BL-S1058 adjusted for 80%/59% content of BL-S643
Text: as §1, §3, §4, §5, §6

S. aureus Smith A9537 = test: Antibiotic spectrum in nutrient broth (MIC); type: cell-based; details: Staphylococcus aureus, 10^-4 dilution, BL-S1057/BL-S1058 adjusted for 80%/59% content of BL-S643
Text: as §1, §3, §4, §5, §6

Pr. mirabilis A9900 = test: Antibiotic spectrum in nutrient broth (MIC); type: cell-based; details: Proteus mirabilis, 10^-4 dilution, BL-S1057/BL-S1058 adjusted for 80%/59% content of BL-S643
Text: as §1, §3, §4, §5, §6

K. pneumoniae A9977 = test: Antibiotic spectrum in nutrient broth (MIC); type: cell-based; details: Klebsiella pneumoniae, 10^-4 dilution, BL-S1057/BL-S1058 adjusted for 80%/59% content of BL-S643
Text: as §1, §3, §4, §5, §6

E. coli A9675 = test: Antibiotic spectrum in nutrient broth (MIC); type: cell-based; details: Escherichia coli, 10^-4 dilution, BL-S1057/BL-S1058 adjusted for 80%/59% content of BL-S643
Text: as §1, §3, §4, §5, §6

Ent. cloacae A9656 = test: Antibiotic spectrum in nutrient broth (MIC); type: cell-based; details: Enterobacter cloacae, 10^-4 dilution, BL-S1057/BL-S1058 adjusted for 80%/59% content of BL-S643
Text: as §1, §3, §4, §5, §6

Ser. marcescens A20019 = test: Antibiotic spectrum in nutrient broth (MIC); type: cell-based; details: Serratia marcescens, 10^-4 dilution, BL-S1057/BL-S1058 adjusted for 80%/59% content of BL-S643
Text: as §1, §3, §4, §5, §6

S. aureus BX1633 A9606 = test: Antibiotic spectrum in nutrient broth (MIC); type: cell-based; details: Staphylococcus aureus, BX1633A9606, nutrient broth, BL-S1057/BL-S1058 adjusted for 80%/59% content of BL-S643
Text: as §1, §3, §4, §5, §6

Ps. aeruginosa A9843A = test: Antibiotic spectrum in nutrient broth (MIC); type: cell-based; details: Pseudomonas aeruginosa
Text: as §1, §3, §4, §5, §6

Pr. morganii A15153 = test: Antibiotic spectrum in nutrient broth (MIC); type: cell-based; details: Morganella morganii, 10^-4 dilution, BL-S1057/BL-S1058 adjusted for 80%/59% content of BL-S643
Text: as §1, §3, §4, §5, §6

K. pneumoniae A15130 = test: Antibiotic spectrum in nutrient broth (MIC); type: cell-based; details: Klebsiella pneumoniae, 10^-4 dilution, BL-S1057/BL-S1058 adjusted for 80%/59% content of BL-S643
Text: as §1, §3, §4, §5, §6

Sal. enteritidis A9531 = test: Antibiotic spectrum in nutrient broth (MIC); type: cell-based; details: Salmonella enterica, 10^-4 dilution, BL-S1057/BL-S1058 adjusted for 80%/59% content of BL-S643
Text: as §1, §3, §4, §5, §6

E. coli Juhl A15119 = test: Antibiotic spectrum in nutrient broth (MIC); type: cell-based; details: Escherichia coli, JUHLA15119, 10^-4 dilution, BL-S1057/BL-S1058 adjusted for 80%/59% content of BL-S643
Text: as §1, §3, §4, §5, §6

[2] = test system: S. aureus Meth-Res A15097; test: Antibiotic spectrum in nutrient broth (MIC); type: cell-based; details: Staphylococcus aureus, 10^-3 dilution, BL-S1057/BL-S1058 adjusted for 80%/59% content of BL-S643
Text: as §1, §3, §4, §5, §6

Ent. cloacae A9657 = test: Antibiotic spectrum in nutrient broth (MIC); type: cell-based; details: Enterobacter cloacae, 10^-4 dilution, BL-S1057/BL-S1058 adjusted for 80%/59% content of BL-S643
Text: as §1, §3, §4, §5, §6

[3] = Bio-assay (using cefatrizine as the standard); type: cell-based
Text: a. Bio-assay (using cefatrizine as the standard) = 759 mcg./mg.
a. Bio-assay (using cefatrizine as the standard) = 685 mcg./mg.

[4] = Paper strip chromatography (hydrolysis to BL-S643); type: physicochemical; details: 0 and 1 hour at 37° C.; 0.2 mg./ml.
[5] = Paper chromatograms of rat urine after IM administration (antibiotically active metabolites); type: in vivo; details: urine 0-2 and 2-4 hours; for Antibiotically active metabolites in rat urine (spots on paper chromatogram): descending chromatography system No. 9
Procedure: Paper chromatograms were run on rat urine collected between 0 and 2 and between 2 and 4 hours following IM administration of BL-S1057, 1058 and 643, for the detection of antibiotically active metabolites using descending chromatography with system No. 9 (butyl acetaten-butanol:glacial acetic acid:H2 O = 80:15:40:24).

[6] = SMITHA9537, nutrient broth +50% serum
[7] = SMITHA9537, nutrient broth, no serum

| Structure (SMILES) | MIC (Str. pyogenes A9604) [µg/mL] | MIC (S. pneumoniae A9585) [µg/mL] | MIC (Ent. cloacae A9659) [µg/mL] | MIC (S. aureus Smith A9537; [6]) [µg/mL] | MIC (S. aureus Smith A9537; [7]) [µg/mL] | MIC (Pr. mirabilis A9900) [µg/mL] | MIC (K. pneumoniae A9977) [µg/mL] | MIC (E. coli A9675) [µg/mL] | MIC (Ent. cloacae A9656) [µg/mL] | MIC (Ser. marcescens A20019) [µg/mL] | MIC (S. aureus BX1633 A9606; 10^-2 dilution) [µg/mL] | MIC (S. aureus BX1633 A9606; 10^-3 dilution) [µg/mL] | MIC (Ps. aeruginosa A9843A) [µg/mL] | MIC (Pr. morganii A15153) [µg/mL] | MIC (K. pneumoniae A15130) [µg/mL] | MIC (Sal. enteritidis A9531) [µg/mL] | MIC (E. coli Juhl A15119) [µg/mL] | MIC [2] [µg/mL] | MIC (Ent. cloacae A9657) [µg/mL] | Antibiotically active metabolites in rat urine (spots on paper chromatogram) [5] | further results |
| --- | --- | --- | --- | --- | --- | --- | --- | --- | --- | --- | --- | --- | --- | --- | --- | --- | --- | --- | --- | --- | --- |
| Cc1nnc(SCC2=C(C(=O)O)N3C(=O)C(N4C(=O)[C@@H](c5ccc(O)cc5)NC4c4ccco4)C3SC2)s1 (some centres unmarked) [BL-S1057] | 0.008 | 0.016 | 16 (≈ 28 µM) | 8 (≈ 14 µM) | 0.5 (≈ 0.875 µM) | 0.5 (≈ 0.875 µM) | 0.5 (≈ 0.875 µM) | 4 (≈ 7 µM) | > 125 | 125 (≈ 219 µM) | 4 (≈ 7 µM) | 1 (≈ 1.75 µM) | > 125 | 16 (≈ 28 µM) | 4 (≈ 7 µM) | 0.25 (≈ 0.437 µM) | 1 (≈ 1.75 µM) | 2 (≈ 3.5 µM) | 0.5 (≈ 0.875 µM) | A single, identical spot | solubility (Solubility in water): > 400 mg/mL; degraded at 1 h ([1]; within 1 hour, pH 6.1 buffer, room temperature): 100%; Bio-assay [3]: 759 µg/mg; Paper strip chromatography zones [4]: Primarily 1 zone at Rf of BL-S643; Hydrolysis to parent compound (BL-S643) [5]: complete hydrolysis |
| Cc1nnc(SCC2=C(C(=O)O)N3C(=O)C(NC(=O)[C@H](N)c4ccc(O)cc4)C3SC2)s1 (some centres unmarked) [BL-S643, reference compound] | 0.016 | 0.03 | 32 (≈ 64.8 µM) | 8 (≈ 16.2 µM) | 0.5 (≈ 1.01 µM) | 0.5 (≈ 1.01 µM) | 0.5 (≈ 1.01 µM) | 4 (≈ 8.1 µM) | > 125 | 125 (≈ 253 µM) | 4 (≈ 8.1 µM) | 1 (≈ 2.03 µM) | > 125 | 16 (≈ 32.4 µM) | 4 (≈ 8.1 µM) | 0.25 (≈ 0.506 µM) | 1 (≈ 2.03 µM) | 4 (≈ 8.1 µM) | 4 (≈ 8.1 µM) | A single, identical spot | – |
| Cc1nnc(SCC2=C(C(=O)O)N3C(=O)C(N4C(=O)[C@@H](c5ccc(O)cc5)NC4c4ccc(S(=O)(=O)O)o4)C3SC2)s1 (some centres unmarked) [BL-S1058] | 0.008 | 0.016 | 16 (≈ 24.6 µM) | 8 (≈ 12.3 µM) | 0.25 (≈ 0.384 µM) | 0.5 (≈ 0.767 µM) | 0.5 (≈ 0.767 µM) | 2 (≈ 3.07 µM) | > 125 | 125 (≈ 192 µM) | 4 (≈ 6.14 µM) | 0.5 (≈ 0.767 µM) | > 125 | 16 (≈ 24.6 µM) | 2 (≈ 3.07 µM) | 0.13 (≈ 0.199 µM) | 1 (≈ 1.53 µM) | 2 (≈ 3.07 µM) | 0.5 (≈ 0.767 µM) | A single, identical spot | % Hydrolyzed ([1]; 0 hours, pH 6 buffer): 25.4%; degraded at 1 h ([1]; 1 hour, pH 6 buffer): 46.5%; degraded at 2 h ([1]; 2 hours, pH 6 buffer): 59%; Bio-assay [3]: 685 µg/mg; Paper strip chromatography zones [4]: Primarily 1 zone at Rf of BL-S643; also recorded: evidence of a second zone; Hydrolysis to parent compound (BL-S643) [5]: complete hydrolysis |
